Values quoted from earlier work as cited in PMC12697872, “Rethinking the AI Paradigm for Solubility Prediction of Drug‑Like Compounds with Dual‐Perspective Modeling and Experimental Validation” (Advanced Science, 2025).

Conditions: discarded ambiguous entries of DrugBank database; ref DrugBank database (version 5.1.12) 24; cited from earlier work

Structure (SMILES) | Experimental solubility (descriptive)
Cc1ncc(COP(=O)(O)O)c(C=O)c1O [54-47-7] | Appreciable

Same assay, conditions: experimental aqueous solubility as logS, sheet "DrugBank" of Supplement 2; ref DrugBank; cited from earlier work

Structure (SMILES) | ex_logS
CN1C(=O)NC(=O)C(C)(C2=CCCCC2)C1=O (stereo not drawn) [Hexobarbital] | -2.735
CNC(=O)Oc1ccc2c(c1)[C@]1(C)CCN(C)[C@@H]1N2C [Physostigmine] | -1.55
O=C1NC(=O)C(c2ccccc2)(c2ccccc2)N1 [phenytoin] | -3.99
CC(C)N(CCC(C(N)=O)(c1ccccc1)c1ccccn1)C(C)C (stereo not drawn) [Disopyramide] | -3.879
CC(O)(CS(=O)(=O)c1ccc(F)cc1)C(=O)Nc1ccc(C#N)c(C(F)(F)F)c1 (stereo not drawn) [Bicalutamide] | -4.935
CCN(CC)CCOC(=O)c1ccc(N)cc1 [procaine] | -1.78
O=C(C1CCCCC1)N1CC(=O)N2CCc3ccccc3C2C1 (stereo not drawn) [Praziquantel] | -2.893
C[C@H]1C[C@H]2[C@@H]3CCC4=CC(=O)C=C[C@]4(C)[C@@]3(F)[C@@H](O)C[C@]2(C)[C@@]1(O)C(=O)CO [Betamethasone] | -3.771
Cc1cccc(N(C)C(=S)Oc2ccc3ccccc3c2)c1 [Tolnaftate] | -6.641
C[C@]1(Cn2ccnn2)[C@H](C(=O)O)N2C(=O)C[C@H]2S1(=O)=O [Tazobactam] | -0.7786
O=C(O)Cc1ccccc1Oc1ccc(Cl)cc1Cl [fenclofenac] | -3.85
CO[C@H]1/C=C/O[C@@]2(C)Oc3c(C)c(O)c4c(c3C2=O)C2=NC3(CCN(CC(C)C)CC3)NC2=C(NC(=O)/C(C)=C\C=C\[C@H](C)[C@H](O)[C@@H](C)[C@@H](O)[C@@H](C)[C@H](OC(C)=O)[C@@H]1C)C4=O [Rifabutin] | -3.649
CC1(C)S[C@@H]2[C@H](NC(=O)C(C(=O)O)c3ccccc3)C(=O)N2[C@H]1C(=O)O (stereo partly drawn) [Carbenicillin] | -2.924

Same assay, conditions: experimental aqueous solubility as logS, sheet "DrugBank"; ref DrugBank database; cited from earlier work

Structure (SMILES) | ex_logS
CCCC(=O)Nc1ccc(OCC(O)CNC(C)C)c(C(C)=O)c1 (stereo not drawn) [Acebutolol] | -3.114
CCn1c(=O)c2c(nc(/C=C/c3ccc(OC)c(OC)c3)n2C)n(CC)c1=O [Istradefylline] | -5.886
CC12CCC(CC1=O)C2(C)C (stereo not drawn) [Camphor] | -1.978
COc1ccc2[nH]c([S+]([O-])Cc3ncc(C)c(OC)c3C)nc2c1 (stereo not drawn) [Omeprazole] | -2.983
Cc1ccc(C(=O)c2ccc(CC(=O)O)n2C)cc1 [Tolmetin] | -3.064
Cn1c(=O)c2[nH]cnc2n(C)c1=O [Aminophylline] | -0.3227
Cn1cnc2c1c(=O)[nH]c(=O)n2C [Theobromine] | -2.737
CN1C(=O)CC(=O)N(c2ccccc2)c2cc(Cl)ccc21 [Clobazam] | -3.204
C[C@@](Cc1ccc(O)c(O)c1)(NN)C(=O)O [Carbidopa] | -4.775
O=C(O)c1ccccc1O [Salicylic acid] | -1.79
CCCCC(=O)O [N-Valeric Acid] | -0.6289
CCC1(C2=CCCCCC2)C(=O)NC(=O)NC1=O [Heptabarbital] | -3.001
Nc1nc(CC(=O)Nc2ccc(CCNC[C@H](O)c3ccccc3)cc2)cs1 [Mirabegron] | -3.684
CN(C)CCCN1c2ccccc2Sc2ccc(Cl)cc21 [Chlorpromazine] | -5.097
Oc1ccc(OCc2ccccc2)cc1 [Monobenzone] | -2.902
CC1=C(/C=C/C(C)=C/C=C/C(C)=C/C=C/C=C(C)/C=C/C=C(C)/C=C/C2=C(C)CCCC2(C)C)C(C)(C)CCC1 [Beta carotene] | -5.952
Nc1ncnc2[nH]cnc12 [Adenine] | -2.1179
Cc1cnc(NC(=O)C2=C(O)c3ccccc3S(=O)(=O)N2C)s1 [Meloxicam] | -4.467
CC(C)n1c(/C=C/C(O)CC(O)CC(=O)O)c(-c2ccc(F)cc2)c2ccccc21 (stereo not drawn) [Fluvastatin] | -5.952
C[C@](N)(Cc1ccc(O)c(O)c1)C(=O)O [Methyldopa] | -1.325
Nc1ccn(C[C@@H](CO)OCP(=O)(O)O)c(=O)n1 [Cidofovir] | -0.2154
NS(=O)(=O)Cc1noc2ccccc12 [Zonisamide] | -2.424
